{"source": "paper PMC11874377", "about": "“Fungal-derived methyldeoxaphomins target Plasmodium falciparum segregation through the inhibition of PfActin1” (Proceedings of the National Academy of Sciences of the …, 2025)", "key": {"[1]": {"system": "human HepG2 hepatoma cells", "assay": "cells", "format": "cell-based", "conditions": "for EC50: Homo sapiens", "protocol": "The antiplasmodial activity of these analogs was assessed in P. falciparum asexual blood stage using a SYBR Green I-based assay. Compounds were tested in both the multidrug resistant line Dd2, and the chloroquine-sensitive line 3D7, to probe any potential for preexisting resistance. […] These methyldeoxaphomin analogs were also cross-screened for cytotoxicity in the human cell line HepG2 to determine their selectivity for the Plasmodium parasite. […] This effect was maintained with analog NPDG-F where both R1 and R2 were substituted with OH groups. […] In addition, the hydroxyl group at carbon 7 seems to be critical for function as a drastic loss of potency was found in NPDG-D as compared to B and C. […]\nCytotoxicity was assessed using an MTS (3-(4,5-Dimethylthiazol-2-yl)-5-(3-carboxymethoxyphenyl)-2-(4-sulfophenyl)-2H-tetrazolium) absorbance assay with human HepG2 hepatoma cells. Cells were maintained in MEM supplemented with 10%FBS, 1% Antibiotic/Antimycotic, 1 mM sodium pyruvate, and 0.15% sodium bicarbonate in a 5 % CO2, 95% air environment at 37°C. For the assay cells were seeded at a density of 2,250 cells per well on 384-well microtiter plates 24 h prior to compound addition. Following a 48-h incubation with compounds, MTS solution was added to wells and absorbance was read after 2-4 h on a Synergy Neo2 multimode reader (BioTek Winsooki, VT). Compound dose response curves and EC50 determination was performed using CDD Vault normalized to 5% triton and vehicle controls. […]"}, "Dd2-Pol δ parent line": {"system": "Dd2-Pol δ parent line", "assay": "Resistant parasite phenotyping and cross resistance, SYBR green I EC50 assay, parent line", "format": "cell-based, Plasmodium falciparum", "conditions": "Plasmodium falciparum; strain Dd2-Pol δ -parent; read-out: EC50 (mean ± SEM)", "protocol": "(§1) Cloning by limiting dilution was then performed to isolate individual lines from the bulk population. Due to the multiple mutations identified in the first biological replicate, we isolated four clones from this bulk culture as compared to two clones each from the second and third replicates. These clones were phenotyped via a SYBR green I-based dose–response assay (Table 2 and Fig. 2B). […] The DNA of these clones was then extracted and subjected to whole-genome sequencing.\n(§2) Resistant parasite phenotyping and cross resistance measurement\n(§3) The EC50 assay was performed at 1% parasitemia, 1% hematocrit with SYBR green I in 96-well plates. The highest final concentration of the methyldeoxaphomin NPDG-F was set at 100 μM. Briefly, the compound was subjected to a 3-fold serial dilution with ten dilution points. Three technical replicates were set up at each dilution point. The Dd2-Pol δ parent line and the resistant parasites at 2% hematocrit and 1% parasitemia were added to the drug media at 1:1 ratio. The plate was incubated at 37°C for 72 hours in a chamber filled with a hypoxic gas mixture (3% oxygen, 5% carbon dioxide, and 92% nitrogen). After incubation, the cells were lysis with lysis buffer (20 mM Tris-HCL, 0.08% saponin, 5 mM EDTA, and 0.8% Triton X-100) containing SYBR green I (10,000X, Thermo Fisher, cat # S7563) overnight. Fluorescence was measured at 485nm excitation and 530nm emission using a PHERAstar FSX plate reader (BMG Labtech, Germany). Dose response curves were graphed with Prism 9 Version 9.5.1.\n3D structural analysis of the mutations and docking studies\nThe crystal structure of PfActin1 with accession number 6TU4 (resolution 2.60 Ang) (Vahokoski et al., 2022) was obtained from the Protein Data Bank (PDB). This structure of PfActin1 contains ligands Jasplakinolide and ADP with a coordinating magnesium ion.\nOnly chain A was used for the docking experiment. […] Schrodinger maestro software (Schrödinger, LLC) was used to build NPDG-F with the proper stereochemistry using the x-ray structure determined for analog NPDG-A (vide supra). […]"}, "[2]": {"system": "in vitro evolved NPDG-F-resistant Dd2-Pol δ clones (PfActin1 mutations)", "assay": "Resistant parasite phenotyping and cross resistance, SYBR green I EC50 assay, NPDG-F-resistant clones", "format": "cell-based, Plasmodium falciparum", "conditions": "for EC50: Plasmodium falciparum, read-out: EC50 (mean ± SEM)", "protocol": "as §1\nTo investigate whether NPDG-F has the same mode of action as cytochalasin D, we tested our clones for sensitivity to both cytochalasin D and jasplakinolide.\nas §2\nas §3, with “9.5.1. […]” for “9.5.1.”"}, "P. falciparum": {"system": "P. falciparum", "assay": "Parasite reduction ratio (PRR)", "format": "cell-based, Plasmodium falciparum", "conditions": "10 × EC50", "protocol": "After a 24 h lag phase, only 10^0.64 parasites are killed within the first replication cycle (48 h). […] We also examined the in vitro killing rate in Dd2 through flow cytometric analysis. […]\nParasite reduction ratio adapted from protocol by Sanz et al (Sanz et al., 2012). In brief, early ring stage mono-infected RBCs at 106 were incubated with a 10 x EC50 concentration of NPDG-F, DHA, or atovaquone for either 24, 48, 72, 96, or 120 h. Following incubations, cells were washed and serially diluted. After 3 weeks, growth was determined via SYBR […]\nGreen I staining. […]"}}, "note": "Read-outs that look alike come from different tables or passages of the source."}
{"compound": "C=C1C(C)C2C(Cc3ccccc3)NC(=O)C23C(=O)C=CC(O)C(O)C(C)CC(C)CC=CC3C1O", "note": "(stereo not shown) [Methyldeoxaphomin NPDG-F]", "values": [{"measurement": "cytotoxicity in HepG2 at the highest concentration tested", "setting": "[1]; 25 µM", "value": "no signs of cytotoxicity"}, {"measurement": "Selectivity Index (SI)", "setting": "[1]; HepG2 EC50/(mean of Dd2 EC50, 3D7 EC50)", "value": "> 60"}, {"measurement": "EC50", "setting": "[1]; HepG2, 48 h, means from triplicate experiments ± SEM, 48-h incubation, read-out: HepG2 EC50", "value": "> 25", "unit": "µM"}, {"measurement": "EC50", "setting": "[1]; HepG2, average ± SEM of three replicates, read-out: HepG2: Average EC50", "value": "> 25", "unit": "µM"}, {"measurement": "EC50", "setting": "[1]; HepG2, individual replicates, read-out: HepG2: EC50", "value": "> 25", "unit": "µM"}, {"measurement": "EC50", "setting": "Dd2-Pol δ parent line", "value": 3.43, "unit": "µM"}, {"measurement": "average EC50 shift, clones from flasks 2 and 3", "setting": "[2]; A136S", "value": 3.5, "unit": "fold"}, {"measurement": "average EC50 shift, clones from flask 1", "setting": "[2]; A171V/S and I290L clones", "value": 2.6, "unit": "fold"}, {"measurement": "EC50", "setting": "[2]; DD2, clone 1-C7, A171S (8%), A171V (92%), I290L", "value": 11.5, "unit": "µM"}, {"measurement": "EC50", "setting": "[2]; DD2, clone 1-D6, A171S (3%), A171V (97%), I290L", "value": 7.79, "unit": "µM"}, {"measurement": "EC50", "setting": "[2]; DD2, clone 1-D7, A171S (22%), A171V (78%), I290L", "value": 9.02, "unit": "µM"}, {"measurement": "EC50", "setting": "[2]; DD2, clone 1-F3, A171S (4%), A171V (96%), I290L", "value": 7.04, "unit": "µM"}, {"measurement": "EC50", "setting": "[2]; DD2, clone 2-C4, A136S", "value": 14.1, "unit": "µM"}, {"measurement": "EC50", "setting": "[2]; DD2, clone 2-F5, A136S", "value": 10.2, "unit": "µM"}, {"measurement": "EC50", "setting": "[2]; DD2, clone 3-C3, A136S", "value": 12.7, "unit": "µM"}, {"measurement": "EC50", "setting": "[2]; DD2, clone 3-C5, A136S", "value": 10, "unit": "µM"}, {"measurement": "Fold change", "setting": "[2]; clone 1-C7 vs Dd2-Pol δ parent", "value": 3.3}, {"measurement": "Fold change", "setting": "[2]; clone 1-D6 vs Dd2-Pol δ parent", "value": 2.3}, {"measurement": "Fold change", "setting": "[2]; clone 1-D7 vs Dd2-Pol δ parent", "value": 2.6}, {"measurement": "Fold change", "setting": "[2]; clone 1-F3 vs Dd2-Pol δ parent", "value": 2.1}, {"measurement": "Fold change", "setting": "[2]; clone 2-C4 vs Dd2-Pol δ parent", "value": 4.1}, {"measurement": "Fold change", "setting": "[2]; clone 2-F5 vs Dd2-Pol δ parent", "value": 3.0}, {"measurement": "Fold change", "setting": "[2]; clone 3-C3 vs Dd2-Pol δ parent", "value": 3.7}, {"measurement": "Fold change", "setting": "[2]; clone 3-C5 vs Dd2-Pol δ parent", "value": 2.9}, {"measurement": "99.9% PCT (parasite clearance time)", "setting": "P. falciparum", "value": "more than 96 h"}, {"measurement": "killing profile", "setting": "P. falciparum", "value": "gradual killing profile"}, {"measurement": "lag phase", "setting": "P. falciparum", "value": 24, "unit": "h"}, {"measurement": "log(PRR)", "setting": "P. falciparum", "value": 0.64}]}
